The source of these data is US8173645B2 (Takeda San Diego, Inc., priority 2007, dated 2012).

The experiment deals with T1, glucokinase (GK), residues 12-465 of the human enzyme (Homo sapiens, UniProt P35557).
T1 construct: I.D. No. 1 corresponds to residues 12-465 of glucokinase; made in house; host or cells: E. coli DH10b-Tlr
T1 sequence (P35557 with tags, fused parts or gaps isoform P35557-2): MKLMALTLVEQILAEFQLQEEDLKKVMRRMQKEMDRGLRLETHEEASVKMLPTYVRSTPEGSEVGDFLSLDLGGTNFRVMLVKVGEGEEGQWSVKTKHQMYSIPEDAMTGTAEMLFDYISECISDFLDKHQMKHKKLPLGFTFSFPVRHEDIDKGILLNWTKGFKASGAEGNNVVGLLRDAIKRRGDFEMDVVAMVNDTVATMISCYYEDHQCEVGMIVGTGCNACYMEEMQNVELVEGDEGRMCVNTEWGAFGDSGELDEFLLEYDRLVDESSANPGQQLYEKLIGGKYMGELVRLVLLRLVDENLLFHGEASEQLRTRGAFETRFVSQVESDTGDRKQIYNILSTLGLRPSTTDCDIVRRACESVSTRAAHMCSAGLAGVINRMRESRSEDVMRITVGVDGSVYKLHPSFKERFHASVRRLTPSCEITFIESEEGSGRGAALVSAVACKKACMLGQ
The experiment in a line: Enzymatic glucokinase activity assay (KinaseGlo luminescence, ATP consumption). The conditions noted are these: 5 μM ATP, 5 mM Glucose; for EC50: GK activation, Kact = concentration giving 50% of the maximal increase in GK activity, read-out: pKact; for Emax: calculated maximal gain in GK enzyme activity at a saturating concentration of the compound, read-out: % ACTmax. It is filed as biochemical. The text has this: The activity of compounds as glucokinase activators may be assayed in vitro, in vivo or in a cell line. Provided below is an enzymatic glucokinase activity assay.
Purified glucokinase may be obtained as follows. DNA encoding residues 12-465 of the full-length sequence of the human enzyme may be amplified by PCR and cloned into the HindIII and EcoRI sites of pFLAG-CTC (Sigma). SEQ. I.D. No. 1 corresponds to residues 12-465 of glucokinase.
The expression of recombinant glucokinase protein may be carried out by transformation and growth of DH10b-Tlr E. coli cells incorporating the (pFLAG-CTC) plasmid in LB media. Protein expression can be induced in this system by the addition of IPTG to the culture medium.
Recombinant protein may be isolated from cellular extracts by passage over Sepharose Q Fast Flow resin (Pharmacia). This partially purified GK extract may then be further purified by a second passage over Poros HQ 10 (Applied Biosystems). The purity of GK may be determined on denaturing SDS-PAGE gel. Purified GK may then be concentrated to a final concentration of 20.0 mg/ml. After flash freezing in liquid nitrogen, the proteins can be stored at −78° C. in a buffer containing 25 mM TRIS-HCl pH 7.6, 50 mM NaCl, and 0.5 mM TCEP.
The activation properties of compounds for GK may be determined using a black 384-well-plate format under the following reaction conditions: 25 mM Hepes pH 7.2, 25 mM NaCl, 10 mM MgCl2, 0.01% Brij35, 1 mM DTT, 5 μM ATP, 5 mM Glucose 2% DMSO. The amount of ATP consumed may be determined quantitatively by addition of equal volume of luciferase reagent (luciferase+beetle luciferin—KinaseGlo Luminescent Kinase Assay kit from Promega). The luminescence intensity may be measured by using the Analyst HT from LJL Biosystems.
The assay reaction may be initiated as follows: 4 μl of substrate mixture (12.5 μM ATP and 12.5 mM Glucose) was added to each well of the plate, followed by the addition of 2 μl of activator (2 fold serial dilutions for 11 data points for each activator) containing 10% DMSO. 4 μL of 1.25 nM GK solution may be added to initiate the reaction. The reaction mixture may then be incubated at room temperature for 60 min, and quenched and developed by addition of 10 μL of luciferase reagent. Luminescence intensities of the resulting reaction mixtures may be measured after a 10 min incubation at room temperature. The luminescence intensity may be measured by using the Analyst HT from LJL Biosystems.
pKact and % ACTmax values may be calculated by non-linear curve fitting of the compound concentrations and luminescence intensities to a standard inhibition/activation equation.

For `O=C(Nc1nccs1)[C@H](CC1CCCCC1)N1CCN(S(=O)(=O)Cc2ccccc2)CC1=O` [Example 41, (S)-2-(4-(benzylsulfonyl)-2-oxopiperazin-1-yl)-3-cyclohexyl-N-(thiazol-2-yl)propanamide], the EC50 was at most 0.631 µM and the Emax was 97.1 to 107%.

In the case of `O=C(Nc1nccs1)[C@H](CC1CCCCC1)N1CCN(S(=O)(=O)c2ccc(Cl)cc2)CC1=O` [Example 43, (S)-2-(4-(4-chlorophenylsulfonyl)-2-oxopiperazin-1-yl)-3-cyclohexyl-N-(thiazol-2-yl)propanamide], the EC50 fell in the range of 0.794 to 1.26 µM and the Emax is 74.1 to 97%.

For the compound `CN1CCOc2cc(S(=O)(=O)N3CCN([C@@H](CC4CCCCC4)C(=O)Nc4nccs4)C(=O)C3)ccc21` [Example 44, (S)-3-cyclohexyl-2-(4-(4-methyl-3,4-dihydro-2H-benzo[b][1,4]oxazin-7-ylsulfonyl)-2-oxopiperazin-1-yl)-N-(thiazol-2-yl)propanamide], the EC50 was at most 0.631 µM and the Emax is 97.1 to 107%.

Turning to `CC(=O)Nc1ccc(S(=O)(=O)N2CCN([C@@H](CC3CCCCC3)C(=O)Nc3nccs3)C(=O)C2)cc1` [Example 45, (S)-2-(4-(4-acetamidophenylsulfonyl)-2-oxopiperazin-1-yl)-3-cyclohexyl-N-(thiazol-2-yl)propanamide], the EC50 is at least 3.16 µM and the Emax is 97.1 to 107%.

Regarding `COc1ccc(S(=O)(=O)N2CCN([C@@H](CC3CCCCC3)C(=O)Nc3nccs3)C(=O)C2)cc1` [Example 46, (S)-3-cyclohexyl-2-(4-(4-methoxyphenylsulfonyl)-2-oxopiperazin-1-yl)-N-(thiazol-2-yl)propanamide], the EC50 lay within 0.794 to 1.26 µM and the Emax was 97.1 to 107%.

Regarding `Cc1nn(C)c(Cl)c1S(=O)(=O)N1CCN([C@@H](CC2CCCCC2)C(=O)Nc2nccs2)C(=O)C1` [Example 47, (S)-2-(4-(5-chloro-1,3-dimethyl-1H-pyrazol-4-ylsulfonyl)-2-oxopiperazin-1-yl)-3-cyclohexyl-N-(thiazol-2-yl)propanamide], the EC50 was in the range of 1.58 to 2.51 µM and the Emax was 97.1 to 107%.

`Cc1nc(S(=O)(=O)N2CCN([C@@H](CC3CCCCC3)C(=O)Nc3nccs3)C(=O)C2)cn1C` [Example 48, (S)-3-cyclohexyl-2-(4-(1,2-dimethyl-1H-imidazol-4-ylsulfonyl)-2-oxopiperazin-1-yl)-N-(thiazol-2-yl)propanamide]: the EC50 was 0.794 to 1.26 µM and the Emax is 108 to 119%.

Consider `O=C(O)c1cccc(S(=O)(=O)N2CCN([C@@H](CC3CCCCC3)C(=O)Nc3nccs3)C(=O)C2)c1` [Example 49, (S)-3-(4-(3-cyclohexyl-1-oxo-1-(thiazol-2-ylamino)propan-2-yl)-3-oxopiperazin-1-ylsulfonyl)benzoic acid], for which the EC50 was at least 3.16 µM and the Emax was 74.1 to 97%.

On to `O=C(Nc1nccs1)[C@H](CC1CCCCC1)N1CCN(S(=O)(=O)c2csc3ccccc23)CC1=O` [Example 50, (S)-2-(4-(benzo[b]thiophen-3-ylsulfonyl)-2-oxopiperazin-1-yl)-3-cyclohexyl-N-(thiazol-2-yl)propanamide], for which the EC50 fell in the range of 0.794 to 1.26 µM and the Emax is at most 74%.

Take `Cc1c(Cl)cccc1S(=O)(=O)N1CCN([C@@H](CC2CCCCC2)C(=O)Nc2nccs2)C(=O)C1` [Example 51, (S)-2-(4-(3-chloro-2-methylphenylsulfonyl)-2-oxopiperazin-1-yl)-3-cyclohexyl-N-(thiazol-2-yl)propanamide]: the EC50 fell in the range of 1.58 to 2.51 µM and the Emax was 74.1 to 97%.

As for `N#Cc1ccc(S(=O)(=O)N2CCN([C@@H](CC3CCCCC3)C(=O)Nc3nccs3)C(=O)C2)c(Cl)c1` [Example 52, (S)-2-(4-(2-chloro-4-cyanophenylsulfonyl)-2-oxopiperazin-1-yl)-3-cyclohexyl-N-(thiazol-2-yl)propanamide], the EC50 lay in the range of 1.58 to 2.51 µM and the Emax is 74.1 to 97%.
